Assay results: US8754073B2, “Substituted piperazino-dihydrothienopyrimidines” (Boehringer Ingelheim International GmbH, priority 2007, dated 2014)
Structures can show the parent of a compound that is named as a salt.

Molecular target: PDE4B (Homo sapiens, UniProt Q07343)
Assay: Scintillation Proximity Assay (SPA) of PDE4B enzyme activity ([H3]-cAMP cleavage)
Format: biochemical
Settings: test substance 1 μM
Method in brief: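 Percent inhibition at 1 μM compound, measured against an uninhibited reaction. PDE4B hydrolysed tritiated cAMP for one hour at 30 °C, then scintillator beads were added to capture [H3]-5′-AMP. Light events were counted after 45 min bead settling.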

[1] = one-hour incubation of [H3]-cAMP with PDE4B enzyme at 30° C.
[2] = one-hour incubation with [H3]-cAMP at 30° C.

PDE4B, sequence (Q07343 whole entry, species assumed): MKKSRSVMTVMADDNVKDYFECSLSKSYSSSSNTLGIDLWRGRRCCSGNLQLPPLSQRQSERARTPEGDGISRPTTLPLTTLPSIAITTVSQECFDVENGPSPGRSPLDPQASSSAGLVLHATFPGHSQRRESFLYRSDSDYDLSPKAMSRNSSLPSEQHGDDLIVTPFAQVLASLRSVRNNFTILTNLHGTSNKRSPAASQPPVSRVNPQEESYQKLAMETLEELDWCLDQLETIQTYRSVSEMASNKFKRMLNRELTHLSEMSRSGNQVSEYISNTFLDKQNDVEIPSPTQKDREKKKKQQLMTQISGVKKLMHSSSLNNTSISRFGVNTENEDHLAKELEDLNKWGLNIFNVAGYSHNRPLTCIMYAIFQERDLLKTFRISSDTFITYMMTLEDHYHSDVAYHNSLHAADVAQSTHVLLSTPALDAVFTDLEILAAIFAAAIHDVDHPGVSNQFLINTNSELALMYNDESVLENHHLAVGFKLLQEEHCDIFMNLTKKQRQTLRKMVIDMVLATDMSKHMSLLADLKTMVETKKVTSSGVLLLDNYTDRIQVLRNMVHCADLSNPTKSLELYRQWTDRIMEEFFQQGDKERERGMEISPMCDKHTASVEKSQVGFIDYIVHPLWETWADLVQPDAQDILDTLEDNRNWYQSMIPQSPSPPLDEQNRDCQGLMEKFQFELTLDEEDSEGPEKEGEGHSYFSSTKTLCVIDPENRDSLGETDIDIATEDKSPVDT

Compound	inhibition at 1 µM [1] [%]	inhibition at 1 µM [2] [%]
CCC[C@H](CO)Nc1nc(N2CCC(c3ccc(Cl)cc3)CC2)nc2c1[S+]([O-])CC2 (stereo partly drawn) [Example 3, (R)-2-{2-[4-(4-chlorophenyl)-piperidin-1-yl]-5-oxo-6,7-dihydro-5H-5λ^4-thieno[3,2-d]pyrimidin-4-ylamino}-pentan-1-ol]	94	
O=C(c1ccc(OC2CCN(c3nc4c(c(NC5CCOCC5)n3)[S+]([O-])CC4)CC2)cc1)N1CCOCC1 (centres unmarked) [Example 240]		94
[O-][S+]1CCc2nc(N3CCC(c4ccc(F)cc4)CC3)nc(NC3CCOCC3)c21 (centres unmarked) [Example 10]	93	
[O-][S+]1CCc2nc(N3CCC(c4nc5c(o4)CCCC5)CC3)nc(NC3CCOCC3)c21 (centres unmarked) [Example 329]		95
O=C(c1ccc(OC2CCN(c3nc4c(c(NC5CCOCC5)n3)[S+]([O-])CC4)CC2)cc1)N(C1CCOCC1)C1CC1 (centres unmarked) [Example 238]		95
CN1CCC(N(C)C(=O)c2ccc(C3CCN(c4nc5c(c(NC6CCOCC6)n4)[S+]([O-])CC5)CC3)cc2)CC1 (centres unmarked) [Example 228]		94
CN(C(=O)c1ccc(C2CCN(c3nc4c(c(NC5CCOCC5)n3)[S+]([O-])CC4)CC2)cc1)C1CC1 (centres unmarked) [Example 229, N-cyclopropyl-N-methyl-4-{1-[5-oxo-4-(tetrahydropyran-4-ylamino)-6,7-dihydro-5H-5λ^4-thieno[3,2-d]pyrimidin-2-yl]-piperidin-4-yl}-benzamide]		94
CC(C)[C@H](CO)Nc1nc(N2CCC3(CC2)OC(=O)Nc2ccccc23)nc2c1[S+]([O-])CC2 (some centres unmarked) [Example 21]	83	
CC(C)c1ccccc1OC1CCN(c2nc3c(c(NC4CCOCC4)n2)[S+]([O-])CC3)CC1 (centres unmarked) [Example 272]		95
N[C@@H]1CC1Nc1nc(N2CCC(c3ccc(Cl)cc3)CC2)nc2c1[S+]([O-])CC2 (some centres unmarked) [Example 245, N-{2-[4-(4-Chlorophenyl)-Piperidin-1-Yl]-5-Oxo-6,7-Dihydro-5H-5λ^4-Thieno[3,2-d]Pyrimidin-4-Yl}-Cyclopropan-1,2-Diamine]		68
COC(=O)c1cccc(OC2CCN(c3nc4c(c(NC5CCOCC5)n3)[S+]([O-])CC4)CC2)c1 (centres unmarked) [Example 177]		93
[O-][S+]1CCc2nc(N3CCC(Oc4ccccc4Cl)CC3)nc(NC3CCOCC3)c21 (centres unmarked) [Example 179]		75
Cn1nc(-c2ccco2)cc1C1CCN(c2nc3c(c(NC4CCOCC4)n2)[S+]([O-])CC3)CC1 (centres unmarked) [Example 200, {2-[4-(5-furan-2-yl-2-methyl-2H-pyrazol-3-yl)-piperidin-1-yl]-5-oxo-6,7-dihydro-5H-5λ^4-thieno[3,2-d]pyrimidin-4-yl}-(tetrahydropyran-4-yl)-amine]		97
CN1C[C@@H](Nc2nc(N3CCC(c4nc5ccc(Cl)cc5o4)CC3)nc3c2[S+]([O-])CC3)CCC1=O (some centres unmarked) [Example 194, 5-{2-[4-(6-Chlorbenzoxazol-2-yl)-piperidin-1-yl]-5-oxo-6,7-dihydro-5H-5λ^4-thieno[3,2-d]pyrimidin-4-ylamino}-1-methylpiperidin-2-one]		97
CC(C)[C@H](CO)Nc1nc(N2CCC(CN(C)S(C)(=O)=O)(c3ccccc3)CC2)nc2c1[S+]([O-])CC2 (some centres unmarked) [Example 331]		85
COCC1(c2ccc(Cl)cc2)CCN(c2nc3c(c(N[C@H]4CCC(=O)N(C)C4)n2)[S+]([O-])CC3)CC1 (some centres unmarked) [Example 260, 5-{2-[4-(4-chlorophenyl)-4-methoxymethylpiperidin-1-yl]-5-oxo-6,7-dihydro-5H-5μ^4-thieno[3,2-d]pyrimidin-4-ylamino}-1-methylpiperidin-2-one]		96
CN1C[C@@H](Nc2nc(N3CCC(c4noc5ccccc45)CC3)nc3c2[S+]([O-])CC3)CCC1=O (some centres unmarked) [Example 45]	97	
O=C(c1ccc(F)cc1)C1(c2ccc(F)cc2)CCN(c2nc3c(c(NC4(CO)CC4)n2)[S+]([O-])CC3)CC1 (centres unmarked) [Example 308]		89
N#Cc1ccc(C2CCN(c3nc4c(c(NC5CCOCC5)n3)[S+]([O-])CC4)CC2)cc1 (centres unmarked) [Example 64]	96	
Cc1cccc(C2CCN(c3nc4c(c(NC5CCOCC5)n3)[S+]([O-])CC4)CC2)c1 (centres unmarked) [Example 7]	93	
COc1ccc(C2CCN(c3nc4c(c(NC5CCOCC5)n3)[S+]([O-])CC4)CC2)cc1 (centres unmarked) [Example 117]	94	
CC(C)[C@H](CO)Nc1nc(N2CCC3(CC2)c2ccccc2NC(=O)N3C)nc2c1[S+]([O-])CC2 (stereo partly drawn) [Example 14, (R)-1-(4-(1-Hydroxy-3-Methylbutan-2-Ylamino)-5-Oxo-6,7-Dihydro-5H-5λ^4-Thieno[3,2-d]Pyrimidin-2-Yl)-3′-Methyl-1′H-Spiro[Piperidin-4,4′-Quinazolin]-2′(3′H)-One]	60	
CN1C[C@@H](Nc2nc(N3CCC4(CC3)NC(=O)Nc3ccccc34)nc3c2[S+]([O-])CC3)CCC1=O (some centres unmarked) [Example 51]	83	
CN(C(=O)c1ccc(OC2CCN(c3nc4c(c(NC5CCOCC5)n3)[S+]([O-])CC4)CC2)cc1)C1CCOCC1 (centres unmarked) [Example 237]		95
O=C(c1ccc(F)cc1)C1(c2ccc(F)cc2)CCN(c2nc3c(c(Nc4cccc(F)c4)n2)[S+]([O-])CC3)CC1 (centres unmarked) [Example 299]		90
CN(C)CC(=O)NCC1(c2ccccc2)CCN(c2nc3c(c(N[C@H]4CCC(=O)N(C)C4)n2)[S+]([O-])CC3)CC1 (some centres unmarked) [Example 206, 2-dimethylamino-N-{1-[4-(1-methyl-6-oxopiperidin-3-ylamino)-5-oxo-6,7-dihydro-5H-5λ^4-thieno[3,2-d]pyrimidin-2-yl]-4-phenylpiperidin-4-ylmethyl}-acetamide]		95
[O-][S+]1CCc2nc(N3CCC(Oc4ccc(C5=NCCO5)cc4)CC3)nc(NC3CCOCC3)c21 (centres unmarked) [Example 180, (2-{4-[4-(4,5-dihydroxazol-2-yl)-phenoxy]-piperidin-1-yl}-5-oxo-6,7-dihydro-5H-5λ^4-thieno[3,2-d]pyrimidin-4-yl)-(tetrahydropyran-4-yl)-amine]		93
CN(C(=O)c1ccc(OC2CCN(c3nc4c(c(NC5CCOCC5)n3)[S+]([O-])CC4)CC2)cc1)C1CC1 (centres unmarked) [Example 242, N-Cyclopropyl-N-Methyl-4-{1-[5-Oxo-4-(Tetrahydropyran-4-Ylamino)-6,7-Dihydro-5H-5λ^4-Thieno[3,2-d]Pyrimidin-2-Yl]-Piperidin-4-Yloxy}-Benzamide]		94
[O-][S+]1CCc2nc(N3CCC(c4nc5cc(F)ccc5[nH]4)CC3)nc(NC3CCOCC3)c21 (centres unmarked) [Example 209]		95
O=C1Nc2ccccc2C2(CCN(c3nc4c(c(NC5CCOCC5)n3)[S+]([O-])CC4)CC2)O1 (centres unmarked) [Example 65]	94	

Second part, the molecule after the results:

inhibition at 1 µM [1] [%]	inhibition at 1 µM [2] [%]	Compound
83		CC(C)[C@H](CO)Nc1nc(N2CCC(c3nnc4ccccn34)CC2)nc2c1[S+]([O-])CC2 (some centres unmarked) [Example 155]
94		CC(C)[C@H](CO)Nc1nc(N2CCC(c3cc(-c4ccco4)n[nH]3)CC2)nc2c1[S+]([O-])CC2 (stereo partly drawn) [Example 161, (R)-2-{2-[4-(5-Furan-2-Yl-2H-Pyrazol-3-Yl)-Piperidin-1-Yl]-5-Oxo-6,7-Dihydro-5H-5λ^4-Thieno[3,2-d]Pyrimidin-4-Ylamino}-3-Methylbutan-1-Ol Trifluoroacetate]
	83	CC(C)[C@H](CO)Nc1nc(N2CCC(c3cc(-c4cccs4)[nH]n3)CC2)nc2c1[S+]([O-])CC2 (some centres unmarked) [Example 292]
94		CC(C)[C@H](CO)Nc1nc(N2CCC(c3c[nH]c4ccccc34)CC2)nc2c1[S+]([O-])CC2 (some centres unmarked) [Example 12]
94		[O-][S+]1CCc2nc(N3CCC(c4nc(-c5cccnc5)no4)CC3)nc(NC3CCOCC3)c21 (centres unmarked) [Example 131]
	89	Cc1nc(C2CCN(c3nc4c(c(NC5(CO)CC5)n3)[S+]([O-])CC4)CC2)oc1-c1ccc(Cl)cc1 (centres unmarked) [Example 283, [1-(2-{4-[5-(4-chlorophenyl)-4-methyloxazol-2-yl]-piperidin-1-yl}-5-oxo-6,7-dihydro-5H-5λ^4-thieno[3,2-d]pyrimidin-4-ylamino)-cyclopropyl]-methanol]
71		CC(C)[C@H](CO)Nc1nc(N2CCC(c3c[nH]cn3)CC2)nc2c1[S+]([O-])CC2 (some centres unmarked) [Example 13]
85		Cc1noc(C2CCN(c3nc4c(c(N[C@@H](CO)C(C)C)n3)[S+]([O-])CC4)CC2)n1 (some centres unmarked) [Example 23]
96		CC(C)[C@H](CO)Nc1nc(N2CCC(c3noc4ccccc34)CC2)nc2c1[S+]([O-])CC2 (stereo partly drawn) [Example 16, (R)-2-[2-(4-Benzo[d]Isoxazol-3-Yl-Piperidin-1-Yl)-5-Oxo-6,7-Dihydro-5H-5λ^4-Thieno[3,2-d]Pyrimidin-4-Ylamino]-3-Methylbutan-1-Ol]
88		[O-][S+]1CCc2nc(N3CCC(c4nnc5ccccn45)CC3)nc(NC3(CO)CC3)c21 (centres unmarked) [Example 108]
96		[O-][S+]1CCc2nc(N3CCC(c4cccc(O)c4)CC3)nc(NC3(CO)CC3)c21 (centres unmarked) [Example 32]
95		COC(=O)c1ccc(C2CCN(c3nc4c(c(NC5(CO)CC5)n3)[S+]([O-])CC4)CC2)cc1 (centres unmarked) [Example 103]
96		[O-][S+]1CCc2nc(N3CCC(c4c[nH]c5ccccc45)CC3)nc(NC3(CO)CC3)c21 (centres unmarked) [Example 26]
93		Cc1noc(C2CCN(c3nc4c(c(NC5CCOCC5)n3)[S+]([O-])CC4)CC2)n1 (centres unmarked) [Example 68]
94		[O-][S+]1CCc2nc(N3CCC(c4ccc(Br)cc4)CC3)nc(NC3(CO)CC3)c21 (centres unmarked) [Example 92, (1-{2-[4-(4-Bromophenyl)-Piperidin-1-Yl]-5-Oxo-6,7-Dihydro-5H-5λ^4-Thieno[3,2-d]Pyrimidin-4-Ylamino}-Cyclopropyl)-Methanol]
92		CC(C)c1noc(C2CCN(c3nc4c(c(NC5(CO)CC5)n3)[S+]([O-])CC4)CC2)n1 (centres unmarked) [Example 113]
95		N#Cc1ccc(C2CCN(c3nc4c(c(NC5(CO)CC5)n3)[S+]([O-])CC4)CC2)cc1 (centres unmarked) [Example 35]
